Reference: ChEMBL document CHEMBL2074157, “The modified dipeptide, enalapril, an angiotensin-converting enzyme inhibitor, is transported by the rat liver organic anion transport protein” (Hepatology, 1998)

T1: Oatp1 (Solute carrier organic anion transporter family member 1A1) (Rattus norvegicus, UniProt P46720)
T1 sequence (P46720 whole entry): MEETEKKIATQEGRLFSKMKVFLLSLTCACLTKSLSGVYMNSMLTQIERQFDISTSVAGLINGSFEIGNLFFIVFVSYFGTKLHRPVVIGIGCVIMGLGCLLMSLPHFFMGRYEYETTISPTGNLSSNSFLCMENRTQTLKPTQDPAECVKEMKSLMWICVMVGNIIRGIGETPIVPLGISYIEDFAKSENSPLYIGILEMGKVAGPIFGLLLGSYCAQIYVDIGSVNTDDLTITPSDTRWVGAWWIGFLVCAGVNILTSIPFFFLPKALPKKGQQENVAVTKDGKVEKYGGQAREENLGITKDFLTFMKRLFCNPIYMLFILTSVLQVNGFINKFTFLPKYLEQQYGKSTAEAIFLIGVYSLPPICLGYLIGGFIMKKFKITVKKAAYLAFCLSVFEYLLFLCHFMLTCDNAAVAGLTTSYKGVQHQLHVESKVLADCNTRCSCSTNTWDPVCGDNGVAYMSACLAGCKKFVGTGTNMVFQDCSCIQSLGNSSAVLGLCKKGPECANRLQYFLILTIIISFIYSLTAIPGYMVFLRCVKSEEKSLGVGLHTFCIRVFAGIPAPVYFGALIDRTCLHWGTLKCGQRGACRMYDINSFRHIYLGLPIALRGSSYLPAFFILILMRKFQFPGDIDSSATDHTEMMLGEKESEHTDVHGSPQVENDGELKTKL

T2: Solute carrier organic anion transporter family member 1A1 (Rattus norvegicus, UniProt P46720)
T2 sequence (P46720 whole entry): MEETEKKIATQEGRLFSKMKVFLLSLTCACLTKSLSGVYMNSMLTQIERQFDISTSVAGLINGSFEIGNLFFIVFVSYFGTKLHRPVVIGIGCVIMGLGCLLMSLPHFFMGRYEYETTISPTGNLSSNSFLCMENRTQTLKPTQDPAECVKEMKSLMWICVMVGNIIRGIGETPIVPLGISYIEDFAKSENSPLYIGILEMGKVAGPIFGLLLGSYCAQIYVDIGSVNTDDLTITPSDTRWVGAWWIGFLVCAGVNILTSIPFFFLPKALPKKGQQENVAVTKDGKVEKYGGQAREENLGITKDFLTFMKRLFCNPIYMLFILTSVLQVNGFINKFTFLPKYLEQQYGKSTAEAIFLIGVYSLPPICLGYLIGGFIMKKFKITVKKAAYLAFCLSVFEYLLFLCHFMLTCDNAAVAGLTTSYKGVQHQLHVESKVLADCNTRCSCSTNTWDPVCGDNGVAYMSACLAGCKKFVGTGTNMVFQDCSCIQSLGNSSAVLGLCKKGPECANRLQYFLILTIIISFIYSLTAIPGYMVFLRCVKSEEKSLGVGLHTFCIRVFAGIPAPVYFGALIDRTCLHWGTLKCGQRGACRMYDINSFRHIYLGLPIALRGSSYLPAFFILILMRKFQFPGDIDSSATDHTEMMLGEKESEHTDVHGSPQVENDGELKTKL

B1: Solute carrier organic anion transporter family member 1A1 (Rattus norvegicus) (protein)
chain: MEETEKKIATQEGRLFSKMKVFLLSLTCACLTKSLSGVYMNSMLTQIERQFDISTSVAGLINGSFEIGNLFFIVFVSYFGTKLHRPVVIGIGCVIMGLGCLLMSLPHFFMGRYEYETTISPTGNLSSNSFLCMENRTQTLKPTQDPAECVKEMKSLMWICVMVGNIIRGIGETPIVPLGISYIEDFAKSENSPLYIGILEMGKVAGPIFGLLLGSYCAQIYVDIGSVNTDDLTITPSDTRWVGAWWIGFLVCAGVNILTSIPFFFLPKALPKKGQQENVAVTKDGKVEKYGGQAREENLGITKDFLTFMKRLFCNPIYMLFILTSVLQVNGFINKFTFLPKYLEQQYGKSTAEAIFLIGVYSLPPICLGYLIGGFIMKKFKITVKKAAYLAFCLSVFEYLLFLCHFMLTCDNAAVAGLTTSYKGVQHQLHVESKVLADCNTRCSCSTNTWDPVCGDNGVAYMSACLAGCKKFVGTGTNMVFQDCSCIQSLGNSSAVLGLCKKGPECANRLQYFLILTIIISFIYSLTAIPGYMVFLRCVKSEEKSLGVGLHTFCIRVFAGIPAPVYFGALIDRTCLHWGTLKCGQRGACRMYDINSFRHIYLGLPIALRGSSYLPAFFILILMRKFQFPGDIDSSATDHTEMMLGEKESEHTDVHGSPQVENDGELKTKL

What was measured:
Assay type in all cases: functional, cell-based
[1] = molecular target: T1, Oatp1 (Solute carrier organic anion transporter family member 1A1); test: TP_TRANSPORTER: inhibition of Enalapril uptake (Enalapril: ? uM, BSP-SG: 200 uM) in Oatp1-expressing HeLa cells; design: scale not given: the % may be the effect or the level left; conditions: human, probe Enalapril, read-out: Activity
[2] = molecular target: T2, Solute carrier organic anion transporter family member 1A1; test: (§1) TP_TRANSPORTER: uptake in Oatp1-expressing HeLa cells; conditions: human
[3] = molecular target: T1, Oatp1 (Solute carrier organic anion transporter family member 1A1); test: TP_TRANSPORTER: inhibition of Enalapril uptake (Enalapril: ? uM, E1S: 100 uM) in Oatp1-expressing HeLa cells; design: scale not given: the % may be the effect or the level left; conditions: human, probe Enalapril, read-out: Activity
[4] = molecular target: T2, Solute carrier organic anion transporter family member 1A1; test: TP_TRANSPORTER: inhibition of Enalapril uptake in Oatp1-expressing HeLa cells
[5] = substrate: CCOC(=O)[C@H](CCc1ccccc1)N[C@@H](C)C(=O)N1CCC[C@H]1C(=O)O; test: as §1

Molecule	Activity [2]	other results
N[C@@H](CCC(=O)N[C@@H](CSc1c(Br)c(Br)c2c(c1Br)C(=O)OC2(c1ccc(O)c(S(=O)(=O)O)c1)c1ccc(O)c(S(=O)(=O)O)c1)C(=O)NCC(=O)O)C(=O)O	substrate [+]	activity at 200 µM [1]: 78%
C[C@H](N[C@@H](CCc1ccccc1)C(=O)O)C(=O)N1CCC[C@H]1C(=O)O [ENALAPRILAT ANHYDROUS]	is not a substrate [-]	–
C[C@]12CC[C@@H]3c4ccc(OS(=O)(=O)O)cc4CC[C@H]3[C@@H]1CCC2=O [ESTRONE SULFURIC ACID]	substrate [+]	activity at 100 µM [3]: 20%
Cc1nccc2c1[nH]c1cc(O)ccc12.O=S(=O)(O)O [HARMOL SULFATE]	is not a substrate [-]	–
O=C1OC(c2ccc(O)c(S(=O)(=O)O)c2)(c2ccc(O)c(S(=O)(=O)O)c2)c2c(Br)c(Br)c(Br)c(Br)c21 [SULFOBROMOPHTHALEIN SODIUM]	–	Ki [4]: 1.98 µM
B1	–	Km [5]: 252 µM
